{"source": "patent US7183293B2", "about": "“Ether derivatives useful as inhibitors of PDE4 isozymes” (Pfizer Inc., priority 2001, dated 2007)", "origin": "cited, not measured here", "key": {"[1]": {"biological_target": "human PDE4B2B (Homo sapiens, UniProt Q07343)", "sequence (Q07343 1-564 isoform Q07343-2)": "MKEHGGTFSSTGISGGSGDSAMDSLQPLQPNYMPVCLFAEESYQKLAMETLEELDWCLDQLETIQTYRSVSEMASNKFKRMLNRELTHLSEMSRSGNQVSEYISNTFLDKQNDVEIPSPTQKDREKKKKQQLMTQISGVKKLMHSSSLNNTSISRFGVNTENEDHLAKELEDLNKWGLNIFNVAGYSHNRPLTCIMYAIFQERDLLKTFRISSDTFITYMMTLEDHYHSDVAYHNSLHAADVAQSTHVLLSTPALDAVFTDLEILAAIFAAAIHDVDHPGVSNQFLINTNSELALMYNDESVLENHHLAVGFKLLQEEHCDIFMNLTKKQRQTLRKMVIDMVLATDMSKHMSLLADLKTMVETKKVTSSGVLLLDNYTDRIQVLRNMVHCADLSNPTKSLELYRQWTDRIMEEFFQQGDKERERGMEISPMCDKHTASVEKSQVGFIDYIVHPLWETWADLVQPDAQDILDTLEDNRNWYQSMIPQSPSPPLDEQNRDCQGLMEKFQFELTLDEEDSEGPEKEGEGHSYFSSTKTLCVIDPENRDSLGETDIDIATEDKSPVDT"}, "[2]": {"test_system": "5-lipoxygenase", "conditions": "in vivo"}, "[3]": {"conditions": "in vivo"}, "[4]": {"test_system": "rhinorrhea"}, "[5]": {"test_system": "LPS-stimulated ex vivo TNF release and PHA induced lymphocyte proliferation", "conditions": "oral dose of 300 mg"}, "[6]": {"test_system": "canine tracheal PDE4", "conditions": "at 100 nM"}, "[7]": {"test_system": "tumor cells"}, "[8]": {"test_system": "dextran sulfate induced colitis", "conditions": "rat"}, "[9]": {"test_system": "SCW-induced arthritis", "conditions": "in vivo"}, "[10]": {"test_system": "rheumatoid arthritis", "parameters": "dose or concentration left out as unconfirmed", "conditions": "35 patients"}, "[11]": {"test_system": "PDE4B mutant enzyme", "conditions": "alanine for aspartate in the catalytic region"}, "[12]": {"test_system": "antigen-induced bronchospasm", "conditions": "rat"}, "[13]": {"biological_target": "PDE4D (Homo sapiens, UniProt Q08499)", "sequence (Q08499 whole entry, species assumed)": "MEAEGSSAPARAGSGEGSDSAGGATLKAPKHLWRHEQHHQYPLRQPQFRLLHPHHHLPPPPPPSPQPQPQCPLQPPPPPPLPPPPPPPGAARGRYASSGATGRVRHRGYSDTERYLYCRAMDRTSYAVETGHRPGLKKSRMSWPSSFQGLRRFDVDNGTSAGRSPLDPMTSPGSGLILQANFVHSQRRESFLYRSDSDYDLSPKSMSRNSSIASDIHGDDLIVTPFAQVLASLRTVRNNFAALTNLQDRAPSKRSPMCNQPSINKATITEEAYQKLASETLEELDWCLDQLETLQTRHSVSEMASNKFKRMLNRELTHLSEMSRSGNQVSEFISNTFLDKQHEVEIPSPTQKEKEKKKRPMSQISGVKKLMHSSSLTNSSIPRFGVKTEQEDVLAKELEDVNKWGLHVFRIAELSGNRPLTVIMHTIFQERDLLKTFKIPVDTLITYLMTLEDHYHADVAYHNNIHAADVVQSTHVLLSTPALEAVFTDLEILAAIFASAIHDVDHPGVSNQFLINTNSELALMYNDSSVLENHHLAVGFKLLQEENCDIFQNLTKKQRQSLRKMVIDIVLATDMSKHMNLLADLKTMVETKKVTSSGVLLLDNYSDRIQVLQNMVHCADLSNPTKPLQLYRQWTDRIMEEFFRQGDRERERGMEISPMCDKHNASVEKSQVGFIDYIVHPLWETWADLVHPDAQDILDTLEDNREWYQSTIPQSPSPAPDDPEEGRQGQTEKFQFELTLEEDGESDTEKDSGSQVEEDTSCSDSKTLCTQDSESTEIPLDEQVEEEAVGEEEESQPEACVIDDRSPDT"}, "[14]": {"test_system": "psoriatic lesions", "conditions": "in vivo"}, "[15]": {"test_system": "FEV1 and forced vital capacity"}, "[16]": {"test_system": "5-lipoxygenase", "conditions": "a number of species"}, "[17]": {"test_system": "bronchodilation", "conditions": "in vivo"}, "[18]": {"test_system": "lipopolysaccharide-induced bowel erythrocyte extravasation", "conditions": "rats; for lipopolysaccharide-induced bowel erythrocyte extravasation: pretreatment i.p. 3×"}, "[19]": {"test_system": "lipopolysaccharide-induced mesenteric blood flow fall", "conditions": "dogs"}, "[20]": {"test_system": "bone loss", "conditions": "serial oral administrations"}, "[21]": {"test_system": "mineralized nodule formation and osteoclast-like cell formation"}, "[22]": {"test_system": "mean pulmonary artery pressure", "conditions": "oral administration, clinical conditions"}, "[23]": {"test_system": "pulmonary artery rings"}, "[24]": {"test_system": "gastric parietal cells"}, "[25]": {"test_system": "collagen induced arthritis"}, "[26]": {"test_system": "experimental allergic encephalomyelitis", "conditions": "marmoset"}, "[27]": {"test_system": "T-cell mediated hepatic failure"}}, "data": [{"smiles": "COC(=O)N1C[C@H](c2ccc(OC)c(OC3CCCC3)c2)[C@@](C)(C(C)=O)C1", "note": "(racemic) [Formula (0.0.61), (R,R)-(+/−)-methyl-3-acetyl-4-[3-(cyclopentyloxy)-4-methoxyphenyl]-3-methyl-1-pyrrolidine carboxylate]", "values": [{"measurement": "affinity to the catalytic and the HARB sites", "setting": "[1]", "value": "equal affinity"}]}, {"smiles": "C[C@H](C#Cc1ccc(Oc2ccc(F)cc2)o1)N(O)C(N)=O", "note": "[Abbott-79175]", "values": [{"measurement": "duration of action", "setting": "[2]", "value": "longer duration of action than zileuton"}]}, {"smiles": "Nc1nc2c([nH]1)c(=O)n(CC1CC1)c(=O)n2CC1CC1", "note": "[BRL-61,063]", "values": [{"measurement": "emesis / nausea and vomiting", "setting": "[3]", "value": "nausea and vomiting"}]}, {"smiles": "COc1ccc(C2CNC(=O)NC2)cc1O[C@H]1C[C@@H]2CC[C@H]1C2", "note": "[CP-80,633]", "values": [{"measurement": "emesis / nausea and vomiting", "setting": "[3]", "value": "elicit emesis"}]}, {"smiles": "CCCn1c(=O)c2c(C)nc(CC)n2c2nc(OC)ccc21", "note": "[Example D-22888]", "values": [{"measurement": "rhinorrhea", "setting": "[4]; antigen-challenged pig", "value": "inhibit rhinorrhea"}, {"measurement": "anti-allergic effect", "setting": "[4]; pig, in vivo", "value": "strong anti-allergic affect"}]}, {"smiles": "CCNc1ncn(Cc2ccc(OC)c(OC3CCCC3)c2)c2nc(C(C)C)nc1-2", "note": "[Example V-11294A]", "values": [{"measurement": "reducing TNF levels and lymphocyte proliferation", "setting": "[5]", "value": "effective"}]}, {"smiles": "COc1ccc(C(=O)Cc2c(Cl)cncc2Cl)c2c1OCCCCO2", "note": "[Formula (0.0.49)]", "values": [{"measurement": "inhibition of canine tracheal PDE4", "setting": "[6]", "value": "almost complete inhibition"}]}, {"smiles": "Clc1nc2c(N3CCCC3)nc(N3CCNCC3)nc2nc1NCc1ccccc1", "note": "[Formula (0.0.55)]", "values": [{"measurement": "inhibition of the growth of tumor cells", "setting": "[7]", "value": "micromolar concentrations"}]}, {"smiles": "CCCn1c(=O)c2[nH]cnc2n(-c2ccc(Cl)cc2)c1=O", "note": "[LAS31025]", "values": [{"measurement": "effects in dextran sulfate induced colitis (bleeding and inflammatory markers)", "setting": "[8]", "value": "beneficial effects comparable to prednisolone"}]}, {"smiles": "COc1ccc(C(=O)Nc2c(Cl)cncc2Cl)cc1OC1CCCC1", "note": "[RP73401]", "values": [{"measurement": "amelioration of disease (joint destruction, synovitis, fibrosis)", "setting": "[9]", "value": "significant amelioration of disease"}, {"measurement": "clinical improvement, C-reactive protein and IL-6 serum levels", "setting": "[10]", "value": "positive trend towards clinical improvement"}]}, {"smiles": "COc1ccc(C(=O)Nc2c(Cl)cncc2Cl)cc1OC1CCCC1", "note": "[RP-73,401]", "values": [{"measurement": "inhibition of mutant PDE4B", "setting": "[11]", "value": "lose potency"}, {"measurement": "emesis / nausea and vomiting", "setting": "[3]", "value": "elicit emesis"}]}, {"smiles": "COc1ccc(C(=O)Nc2c(C)noc2C)cc1OC1CCCC1", "note": "[RPR-132294]", "values": [{"measurement": "inhibition of antigen-induced bronchospasm", "setting": "[12]", "value": "activity"}]}, {"smiles": "O=c1c2cccnc2n(-c2cccc([N+](=O)[O-])c2)c(=O)n1Cc1ccncc1", "note": "[RS-23,544]", "values": [{"measurement": "emesis / nausea and vomiting", "setting": "[3]", "value": "elicit emesis"}]}, {"smiles": "O=c1c2cccnc2n(-c2cccc([N+](=O)[O-])c2)c(=O)n1Cc1ccncc1", "note": "[RS-25,344]", "values": [{"measurement": "potency against PDE4 subtypes", "setting": "[13]", "value": "more potent against PDE4D"}]}, {"smiles": "CCCCOc1cc(CC2CNC(=O)N2)ccc1OC", "note": "(centres unmarked) [Ro 20-1724]", "values": [{"measurement": "adverse systemic or cutaneous effects", "setting": "[14]", "value": "without adverse systemic or cutaneous effects"}]}, {"smiles": "COc1ccc(CC2CNC(=O)N2)cc1OC1CCCC1", "note": "(centres unmarked) [Ro-20-1724]", "values": [{"measurement": "inhibition of mutant PDE4B", "setting": "[11]", "value": "lose potency"}]}, {"smiles": "COc1ccc([C@]2(C#N)CC[C@@H](C(=O)O)CC2)cc1OC1CCCC1", "note": "[SB-207,499]", "values": [{"measurement": "FEV and forced vital capacity (FVC)", "setting": "[15]; 15 mg twice a day for six weeks", "value": "increrases"}, {"measurement": "FEV1", "setting": "[15]; four week trial, six week study, 15 mg twice a day", "value": "improved FEV1"}]}, {"smiles": "COC1(c2cc(F)cc(OCc3ccc4c(ccc(=O)n4C)c3)c2)CCOCC1", "note": "[ZD-2138]", "values": [{"measurement": "oral activity", "setting": "[16]", "value": "highly active orally"}]}, {"smiles": "COc1cc2c(cc1OC)[C@@H]1CN(C)CC[C@@H]1N=C2c1ccc(NC(C)=O)cc1", "note": "[benafentrine]", "values": [{"measurement": "bronchodilation", "setting": "[17]", "value": "bronchodilation only when administered by inhalation"}]}, {"smiles": "CCCCn1c(=O)c2c(ncn2CC(C)=O)n(CCCC)c1=O", "note": "[debufylline]", "values": [{"measurement": "lipopolysaccharide-induced bowel erythrocyte extravasation", "setting": "[18]", "value": "reduces"}]}, {"smiles": "CCCCn1c(=O)c2c(ncn2CC(C)=O)n(CCCC)c1=O", "note": "[denbufylline]", "values": [{"measurement": "lipopolysaccharide induced intestinal hypoperfusion", "setting": "[19]", "value": "attenuated"}, {"measurement": "lipopolysaccharide induced erythrocyte extravasation", "setting": "[18]", "value": "attenuated"}, {"measurement": "bone mineral density of femurs", "setting": "[20]", "value": "inhibit the decrease in the bone mineral density"}, {"measurement": "number of mineralized nodules", "setting": "[21]", "value": "increase in the number of mineralized nodules"}]}, {"smiles": "CSc1ccc(C(=O)c2[nH]c(=O)[nH]c2C)cc1", "note": "[enoximone]", "values": [{"measurement": "mean pulmonary artery pressure", "setting": "[22]", "value": "decreases"}]}, {"smiles": "Cc1[nH]c(=O)c(C#N)cc1-c1ccncc1", "note": "[milrinone]", "values": [{"measurement": "adverse events", "setting": "[17]", "value": "tachycardia and hypotension"}, {"measurement": "bronchodilation", "setting": "[17]", "value": "short-lived bronchodilation"}, {"measurement": "protection against induced bronchoconstriction", "setting": "[17]", "value": "slight degree of protection"}, {"measurement": "mean pulmonary artery pressure", "setting": "[22]", "value": "decreases"}, {"measurement": "relaxant activities of isoproterenol and forskolin", "setting": "[23]", "value": "same effect"}]}, {"smiles": "CC(=O)CCCCn1c(=O)c2c(ncn2C)n(C)c1=O", "note": "[pentoxifylline]", "values": [{"measurement": "lipopolysaccharide-induced bowel erythrocyte extravasation", "setting": "[18]", "value": "reduces"}]}, {"smiles": "COc1ccc(C2CNC(=O)C2)cc1OC1CCCC1", "note": "(centres unmarked) [rolipram]", "values": [{"measurement": "lipopolysaccharide induced intestinal hypoperfusion", "setting": "[19]", "value": "attenuated"}, {"measurement": "stimulation of acid secretion", "setting": "[24]", "value": "very potent stimulator"}, {"measurement": "inhibition of mutant PDE4B", "setting": "[11]", "value": "critical for inhibition"}, {"measurement": "development of the disease", "setting": "[25]; 3 mg/kg twice daily when arthritis was apparent", "value": "progression of severity was halted"}, {"measurement": "TNF-α and IFN-γ mRNA expression in regional lymph nodes", "setting": "[25]; rat, in vivo", "value": "strong down-regulation"}, {"measurement": "clinical signs and MRI abnormalities", "setting": "[26]", "value": "suppress the appearance of clinical signs"}, {"measurement": "effects in dextran sulfate induced colitis (bleeding and inflammatory markers)", "setting": "[8]", "value": "beneficial effects comparable to prednisolone"}, {"measurement": "lipopolysaccharide induced erythrocyte extravasation", "setting": "[18]", "value": "attenuated"}, {"measurement": "lipopolysaccharide-induced bowel erythrocyte extravasation", "setting": "[18]", "value": "reduces"}, {"measurement": "plasma activities of ALT, AST and SDH", "setting": "[27]; 0.1 to 10 mg/kg i.p., mice", "value": "dose-dependently inhibited"}, {"measurement": "concanavalin A-induced IL-4 release", "setting": "[27]; mouse, in vivo", "value": "suppress"}, {"measurement": "relaxant activities of isoproterenol and forskolin", "setting": "[23]", "value": "potentiates"}]}]}
